# Test results taken from patent US20220401468A1 (priority 2021, published 2022).
# Tested on: VSV-eGFP-SARS-CoV-2
# Format: cell-based, VSV-SARS-CoV-2 chimeric virus
substance,measurement,value
Heparin sodium salt,"half-maximal inhibitory concentration (IC50), infected (GFP+) cells",0.03 µg/mL
